Measurements from patent publication US6428969B1, “Method for determining oncogenic activity of a substance” (Ludwig Institute for Cancer Research, priority 1997, dated 2002).

B1: IFNγ: cytokine interferonγ; human IFNγ used on human tumor cell lines (protein, UniProt P01579 24-161, looked up)
Interferon gamma: QDPYVKEAENLKKYFNAGHSDVADNGTLFLGILKNWKEESDRKIMQSQIVSFYFKLFKNFKDDQSIQKSVETIKEDMNVKFFNSNKKKRDDFEKLTNYSVTDLNVQRKAIHELIQVMAELSPAAKTGKRKRSQMLFRG

Key:
[1] = test system: perforin-deficient (PKO) mice; details: subcutaneous injection; cited from earlier work
[2] = test system: wild type 129/Sv/Ev mice; assay: MCA-induced tumor formation at the injection site; assay type: in vivo, mouse; details: for tumor development: Example 5
Text: (§1) Initially, tumor formation was examined in groups of 15-20 IFNγR^−/^− mice generated as described in Example 1 and wild type inbred 129/Sv/Ev mice as controls. All animals were greater than 6 weeks old (ranging in age from about 6 to about 12 weeks). The 129/Sv/Ev background was specifically chosen for these experiments since 129/Sv/Ev mice are relatively resistant to the tumorigenic actions of MCA and the pure background of the mice insured that in vivo growth of the resulting tumors could be studied using tumor transplantation approaches. The knockout and control mice were injected subcutaneously in a single dose with 25, 100, or 400 μg of the chemical carcinogen 3-methylcholanthrene (MCA) diluted in peanut oil and monitored for tumor development at the injection site for a period of 130 days. The results are shown in FIG. 1A, which represents the percentage of mice in each group with a tumor over 5 mm as a function of the number of days after injection.
(§2) Groups of IFNγR^−/− mice and STAT1^−/^− mice were generated as described in Examples 1 and 2 and compared to a control group of 129/Sv/Ev wild-type mice. All animals were greater than 6 weeks old (ranging in age from about 6 to about 12 weeks). Each of 20-25 animals per group, were injected subcutaneously with a single dose of MCA at 1.5, 6.25, 25, 100 or 400 μg and monitored for tumor development.

[3] = test system: IFNγR−/− mice; assay: MCA-induced tumor formation at the injection site; assay type: in vivo, mouse
Text: as §1, §2

[4] = test system: IFNγ-responsive and IFNγ-unresponsive mice; assay: Histologic comparison of MCA-induced tumors; assay type: in vivo; details: three mouse strains; data not shown
Description: Both types of IFNγ insensitive mice developed MCA-induced tumors more frequently than wild-type mice. Tumor formation was detected in IFNγR^−/− mice treated with as little as 6.25 μg MCA.

[5] = test system: Stat1−/− mice; assay: MCA-induced tumor formation at the injection site; assay type: in vivo, mouse
Description: as §2

[6] = test system: α chain knockout mice; details: mouse, in vivo; cited from earlier work
[7] = test system: p53−/+ mice; details: cited from earlier work
[8] = test system: SK-LC-12; assay: MHC class I surface expression by flow cytometry; assay type: cell-based, human; details: IFNγ 1000 IRU/ml or IFNαA/D 1000 U/ml, 72 hr, mean channel shift vs untreated cells
Description: (§3) To address this question IFNγ responsiveness was examined in a variety of tumor cell lines obtained from human tumor cell banks. Established cell lines were cultured in the presence of either buffer, human IFNγ (1000 IRU/ml), or human IFNαA/D (1000 U/ml) for 72 hr followed by quantitation of MHC class I surface expression by flow cytometry with the antibody W6/32 as previously described (Farrar et al., supra). W6/32 is a murine monoclonal antibody specific for a framework region of human MHC Class I and was kindly provided by Dr. Thalachallour Mohanakumar (Washington University, St. Louis, Mo.). IFNγ-dependent STAT1 activation was assessed by treating cells with either PBS or human IFNγ at 10,000 IRU/ml for 5 minutes at 37° C. followed by subjecting 5 μg of nuclear extract to EMSA using a ^32P-labeled GRR probe as described by Greenlund et al., EMBO J. 13:1591, 1994, which is incorporated herein by reference.
(§4) The experiment was repeated with 17 human adenocarcinoma cell lines and the data are shown in Table I below, with the induction of MHC class I expression represented as the mean channel shift between IFNγ-treated cells and untreated cells. […] The CALU-5 cell line was also insensitive to IFNα. None of the cell lines examined show IFNα-specific unresponsiveness.

[9] = test system: SK-LC-20; assay: MHC class I surface expression by flow cytometry; assay type: cell-based, human; details: IFNγ 1000 IRU/ml or IFNαA/D 1000 U/ml, 72 hr, mean channel shift vs untreated cells
Description: as §3, §4

[10] = test system: A457; assay: MHC class I surface expression by flow cytometry; assay type: cell-based, human; details: IFNγ 1000 IRU/ml or IFNαA/D 1000 U/ml, 72 hr, mean channel shift vs untreated cells
Description: as §3, §4

[11] = test system: CALU-3; assay: MHC class I surface expression by flow cytometry; assay type: cell-based, human; details: IFNγ 1000 IRU/ml or IFNαA/D 1000 U/ml, 72 hr, mean channel shift vs untreated cells
Description: as §3, §4

[12] = test system: SK-LC-16; assay: MHC class I surface expression by flow cytometry; assay type: cell-based, human; details: IFNγ 1000 IRU/ml or IFNαA/D 1000 U/ml, 72 hr, mean channel shift vs untreated cells
Description: as §3, §4

[13] = test system: SK-LC-10; assay: MHC class I surface expression by flow cytometry; assay type: cell-based, human; details: IFNγ 1000 IRU/ml or IFNαA/D 1000 U/ml, 72 hr, mean channel shift vs untreated cells
Description: as §3, §4

[14] = test system: SK-LC-4; assay: MHC class I surface expression by flow cytometry; assay type: cell-based, human; details: IFNγ 1000 IRU/ml or IFNαA/D 1000 U/ml, 72 hr, mean channel shift vs untreated cells
Description: as §3, §4

[15] = test system: SK-LC-15; assay: MHC class I surface expression by flow cytometry; assay type: cell-based, human; details: IFNγ 1000 IRU/ml or IFNαA/D 1000 U/ml, 72 hr, mean channel shift vs untreated cells
Description: as §3, §4

[16] = test system: SK-LC-7; assay: MHC class I surface expression by flow cytometry; assay type: cell-based, human; details: for MHC Class I Enhancement (MCS): IFNγ 1000 IRU/ml or IFNαA/D 1000 U/ml, 72 hr, mean channel shift vs untreated cells
Description: as §3, §4

[17] = test system: SK-LC-2; assay: MHC class I surface expression by flow cytometry; assay type: cell-based, human; details: for MHC Class I Enhancement (MCS): IFNγ 1000 IRU/ml or IFNαA/D 1000 U/ml, 72 hr, mean channel shift vs untreated cells
Description: as §3, §4

[18] = test system: CALU-5; assay: MHC class I surface expression by flow cytometry; assay type: cell-based, human; details: for MHC Class I Enhancement (MCS): IFNγ 1000 IRU/ml or IFNαA/D 1000 U/ml, 72 hr, mean channel shift vs untreated cells
Description: as §3, §4

[19] = test system: SK-LC-9; assay: MHC class I surface expression by flow cytometry; assay type: cell-based, human; details: IFNγ 1000 IRU/ml or IFNαA/D 1000 U/ml, 72 hr, mean channel shift vs untreated cells
Description: as §3, §4

[20] = test system: A549; assay: MHC class I surface expression by flow cytometry; assay type: cell-based, human; details: IFNγ 1000 IRU/ml or IFNαA/D 1000 U/ml, 72 hr, mean channel shift vs untreated cells
Description: as §3, §4

[21] = test system: SK-LC-19; assay: MHC class I surface expression by flow cytometry; assay type: cell-based, human; details: for MHC Class I Enhancement (MCS): SK-LC-19, IFNγ 1000 IRU/ml or IFNαA/D 1000 U/ml, 72 hr, mean channel shift vs untreated cells
Description: as §3, §4

[22] = test system: SK-LU-1; assay: MHC class I surface expression by flow cytometry; assay type: cell-based, human; details: IFNγ 1000 IRU/ml or IFNαA/D 1000 U/ml, 72 hr, mean channel shift vs untreated cells
Description: as §3, §4

[23] = test system: SK-LC-1; assay: MHC class I surface expression by flow cytometry; assay type: cell-based, human; details: IFNγ 1000 IRU/ml or IFNαA/D 1000 U/ml, 72 hr, mean channel shift vs untreated cells
Description: as §3, §4

[24] = test system: SK-LC-11; assay: MHC class I surface expression by flow cytometry; assay type: cell-based, human; details: IFNγ 1000 IRU/ml or IFNαA/D 1000 U/ml, 72 hr, mean channel shift vs untreated cells
Description: as §3, §4

[25] = test system: 33 melanoma and 17 lung tumor cell lines classified as non-adenocarcinoma; assay: Preliminary study of IFNγ sensitivity of tumor cell lines; assay type: cell-based, human; details: of each group (33 melanoma, 17 lung non-adenocarcinoma lines), data not shown
Description: as §3

[26] = test system: RADgR.28.mgR cells; assay: Antiproliferative or anti-metabolic effects of IFNγ in culture; assay type: cell-based, mouse; details: IFNγ alone or in combination with other cytokines, in vitro; data not shown
Text: Having identified the tumor cell as the major target of IFNγ's actions, experiments were designed to define the mechanism underlying the rejection process. IFNγ can induce an antiproliferative state in certain cell types.

[27] = 400 μg MCA, single s.c. dose, at 130 days

Row | Molecule | tumor induction [7] | MHC Class I Enhancement (MCS) [8] [MCS] | MHC Class I Enhancement (MCS) [9] [MCS] | MHC Class I Enhancement (MCS) [10] [MCS] | MHC Class I Enhancement (MCS) [11] [MCS] | MHC Class I Enhancement (MCS) [12] [MCS] | MHC Class I Enhancement (MCS) [13] [MCS] | MHC Class I Enhancement (MCS) [14] [MCS] | MHC Class I Enhancement (MCS) [15] [MCS] | MHC Class I Enhancement (MCS) [16] [MCS] | MHC Class I Enhancement (MCS) [17] [MCS] | MHC Class I Enhancement (MCS) [18] [MCS] | MHC Class I Enhancement (MCS) [19] [MCS] | MHC Class I Enhancement (MCS) [20] [MCS] | MHC Class I Enhancement (MCS) [21] [MCS] | MHC Class I Enhancement (MCS) [22] [MCS] | MHC Class I Enhancement (MCS) [23] [MCS] | MHC Class I Enhancement (MCS) [24] [MCS] | also measured
1 | Cc1ccc2cc3c(ccc4ccccc43)c3c2c1CC3 [MCA, 3-methylcholanthrene] |  |  |  |  |  |  |  |  |  |  |  |  |  |  |  |  |  |  | sarcomas at the injection site compared with normal MCA-treated mice [1]: higher frequency and with accelerated onset of tumor; tumor development ([2]; 25 μg MCA): not; tumor development ([2]; 400 μg MCA): developed tumors; percentage of mice in which tumors were detected (over 5 mm) [2, 27]: 20%; MCA dose at which tumors formed ([2]; single s.c. dose, 130 days, Example 4): ≥ 100 µg; mice forming tumors at the lower MCA dose ([3]; 25 μg MCA s.c., Example 4): high percentage; percentage of mice that developed tumors (over 5 mm) [3, 27]: 50%; time at which tumors were detected ([3]; all dose groups (25, 100, 400 μg MCA s.c.)): 90 days; tumor development compared with wild-type mice ([3]; all doses examined (25, 100, 400 μg)): more frequently and at earlier times; lowest MCA dose at which tumor formation was detected ([3]; single s.c. dose, within 130 days, Example 5): 6.25 µg; histology of induced tumors [4]: histologically indistinguishable fibrosarcomas; frequency of tumors relative to IFNγR−/− mice ([5]; at every dose examined): approximately two times; lowest MCA dose at which tumors could be detected ([5]; single s.c. dose, within 130 days): 1.6 μg MCA/mouse; tumors in α chain knockout mice compared with wild-type controls [6]: more tumors
2 | C1CC2OC2CC1C1CO1 (stereo not drawn) [VCD, 4-vinyl-1-cyclohexene diepoxide] | tumors were induced |  |  |  |  |  |  |  |  |  |  |  |  |  |  |  |  |  | 
3 | COc1ccc(C)cc1N [p-cresidine] | tumors were induced |  |  |  |  |  |  |  |  |  |  |  |  |  |  |  |  |  | 
4 | IFNα |  | 12.7 | 25.9 | 27.1 | 17.0 | 10.9 | 22.6 | 36.7 | 79.6 | 37.2 | 16.7 | 0.0 | 53.4 | 21.8 | 25.1 | 16.7 | 18.7 | 13.8 | sensitivity to IFNα [18]: insensitive
5 | B1 |  | 30.4 | 25.6 | 27.7 | 30.4 | 27.0 | 31.7 | 59.5 | 91.3 | 0.0 | 0.0 | 0.0 | 49.3 | 36.9 | 0.0 | 47.1 | 16.9 | 25.3 | responsiveness to IFNγ (initiation of IFNγ-signaling or IFNγ dependent biologic response) [16]: totally unresponsive; responsiveness to IFNγ (initiation of IFNγ-signaling or IFNγ dependent biologic response) [17]: totally unresponsive; responsiveness to IFNγ (initiation of IFNγ-signaling or IFNγ dependent biologic response) [18]: totally unresponsive; responsiveness to IFNγ (initiation of IFNγ-signaling or IFNγ dependent biologic response) ([21]; SL-LC-19 as printed): totally unresponsive; share of cell lines showing a quantitative reduction in IFNγ sensitivity [25]: approximately 33%; antiproliferative or anti-metabolic effects [26]: no antiproliferative or anti-metabolic effects
